≈ marks a conversion by molar mass, not a printed value. Read-outs that look alike come from different tables or passages of the source.
Columns and labels:
[1] = system: M. tuberculosis ATCC 25618 (H37Rv); experiment: Susceptibility testing (agar dilution MIC); assay type: cell-based; conditions: Mycobacterium tuberculosis, 336 h
[2] = system: M. tuberculosis ATCC 35838 (H37Rv-R-R); experiment: microbe, parasite or virus in culture; assay type: cell-based; conditions: Mycobacterium tuberculosis, 336 h
[3] = system: M. tuberculosis ATCC 35822 (H37Rv-H-R); experiment: microbe, parasite or virus in culture; assay type: cell-based; conditions: Mycobacterium tuberculosis, 336 h
[4] = system: M. tuberculosis ATCC 35837 (H37Rv-E-R); experiment: microbe, parasite or virus in culture; assay type: cell-based; conditions: Mycobacterium tuberculosis, 336 h
[5] = system: M. tuberculosis ATCC 35820 (H37Rv-S-R); experiment: microbe, parasite or virus in culture; assay type: cell-based; conditions: Mycobacterium tuberculosis, 336 h
[6] = system: M. tuberculosis ATCC 35812 (Kurono); experiment: Susceptibility testing (agar dilution MIC); assay type: cell-based; conditions: Mycobacterium tuberculosis, ATCC35812, 336 h
CYP2C8/9 = experiment: Tolubutamide methylhydroxylation in human liver microsomes; assay type: in vitro ADME; conditions: 100 μM; 400 μM tolbutamide
[7] = system: clinically isolated M. tuberculosis; experiment: microbe, parasite or virus in culture; assay type: cell-based; conditions: Mycobacterium tuberculosis; read-out: MIC90
M. tuberculosis Kurono = experiment: Therapeutic efficacy in an experimental mouse model of chronic TB; assay type: in vivo, ICR mice; conditions: for Log of Viable Counts/Lung: 672 h; for Dose that could produce a CFU reduction of at least 95%: lung; for Dose that could produce a CFU reduction of at least 95% / Dose groups that showed a significant decrease in pulmonary viable bacterial count when compared with the vehicle control group: once daily for 28 d
CYP1A1/2 = experiment: 7-Ethoxyresorufin O-deethylation in human liver microsomes; assay type: in vitro ADME; conditions: 100 μM; 0.5 μM 7-ethoxyresorufin
S. typhimurium TA1537 = experiment: Bacterial reverse mutation (BRM) test; assay type: cell-based; conditions: S9 mix −; positive control ACR 80 μg/plate
Description: The BRM test was performed in accordance with OECD Guideline 471 using Salmonella tyiphimurium TA98, TA100, TA1535, and TA1537, and Escherichia coli WP2 uvrA [11]. Each bacterial strain was pre-cultured at 37 °C for 18 h using a nutrient broth (Nissui Pharmaceutical; http://www.nissui-pharm.co.jp/index_e.html). After adjustment to 2.4 at OD660 nm, each bacterial suspension was added to a test tube containing the designated compound in the absence or presence of rat liver microsome (S9) mix. After a 20-min incubation at 37 °C, top agar was added to each test tube and the contents were poured into minimum essential medium (Oriental Yeast; http://www.oyc.co.jp/e/index.htm). The number of revertants was counted 48 h after incubation at 37 °C.

M. tuberculosis = experiment: Activity of the main metabolite (test not described); conditions: metabolite produced in the presence of M. tuberculosis
[8] = system: mycolic acid synthesis in M. bovis BCG; experiment: microbe, parasite or virus in culture; assay type: cell-based; conditions: Mycobacterium tuberculosis variant bovis BCG, BCG
[9] = system: intracellular M. tuberculosis H37Rv in THP-1 cells; experiment: Activity against intracellular mycobacteria, 4-h pulsed exposure; assay type: cell-based, M. tuberculosis; human THP-1 cells; conditions: further 68-h culture
[10] = Plasma levels in an experimental mouse model of TB; conditions: in vivo, po
[11] = 7H11 agar, 37 °C, 14 d, read-out: MIC

Work on `CCC1Cn2cc([N+](=O)[O-])nc2O1` (stereo not shown) [CGI-17341] yielded an MIC [1, 11] of 0.2 µg/mL (≈ 1.09 µM), an MIC [2] of 0.05 µg/mL (≈ 0.273 µM) and an MIC [3] of 0.2 µg/mL (≈ 1.09 µM). It also gave an MIC [4] of 0.2 µg/mL (≈ 1.09 µM), an MIC [5] of 0.2 µg/mL (≈ 1.09 µM) and an MIC [6, 11] of 0.2 µg/mL (≈ 1.09 µM).

In the case of `Nc1ccc(S(=O)(=O)Nc2ccnn2-c2ccccc2)cc1` [Sulfaphenazole, sulfaphenazole], the “Percent of Control” value (CYP2C8/9) is reported as 25.5% of Control.

With `CN[C@@H]1[C@H](O[C@H]2[C@H](O[C@H]3[C@H](O)[C@@H](O)[C@H](N=C(N)N)[C@@H](O)[C@@H]3N=C(N)N)O[C@@H](C)[C@]2(O)C=O)O[C@@H](CO)[C@H](O)[C@H]1O` [SM, streptomycin] the MIC [1] was 1.56 µg/mL (≈ 2.68 µM), the MIC [2] was 0.78 µg/mL (≈ 1.34 µM) and the MIC [3] was 0.78 µg/mL (≈ 1.34 µM). The MIC [4] was 0.78 µg/mL (≈ 1.34 µM), the MIC [5] was greater than 100 µg/mL and the MIC [6] was 0.78 µg/mL (≈ 1.34 µM). For the same compound, the MIC90 [7] was 2.94 µg/mL (≈ 5.05 µM), the “Log of Viable Counts/Lung” value (M. tuberculosis Kurono; 20 mg/kg) was 6.000 ± 0.553^a:**, b:* and the “Log of Viable Counts/Lung” value (M. tuberculosis Kurono; 40 mg/kg) was 6.040 ± 0.361^a:**, b:*. The “Log of Viable Counts/Lung” value (M. tuberculosis Kurono; 80 mg/kg) was 5.739 ± 0.309^a:**, b:**, the “Log of Viable Counts/Lung” value (M. tuberculosis Kurono; 160 mg/kg) was 5.184 ± 0.461^a:**, b:** and the “Dose that could produce a CFU reduction of at least 95%” value (M. tuberculosis Kurono) was 40 mg/kg. The “Dose groups that showed a significant decrease in pulmonary viable bacterial count when compared with the vehicle control group” value (M. tuberculosis Kurono) was 20, 40, 80, and 160 mg/kg.

In the case of `Cc1nc2c([nH]1)c(=O)n(C)c(=O)n2Cc1ccco1` [Furafylline, furafylline], the “Percent of Control” value (CYP1A1/2) is reported as 32.3% of Control.

In the case of `Nc1c2ccccc2nc2ccccc12` [ACR, 9-aminoacridine], the Revertants/Plate (S. typhimurium TA1537) is reported as 64 953 Revertants/Plate.

For `CC1(COc2ccc(N3CCC(Oc4ccc(OC(F)(F)F)cc4)CC3)cc2)Cn2ccnc2O1` (stereo not shown) [desnitro-imidazooxazole], the “Activity of the main metabolite” value (M. tuberculosis) was “non-active”.

`NNC(=O)c1ccncc1` [INH, isoniazid] showed an MIC [1] of 0.1 µg/mL (≈ 0.729 µM), an MIC [2] of 0.1 µg/mL (≈ 0.729 µM) and an MIC [3] greater than 100 µg/mL. The MIC [4] was 0.2 µg/mL (≈ 1.46 µM), the MIC [5] was 0.1 µg/mL (≈ 0.729 µM) and the MIC [6] was 0.1 µg/mL (≈ 0.729 µM). It also gave an MIC90 [7] of 0.099 µg/mL (≈ 0.722 µM), an IC50 ([8]; 1 h, read-out: IC50, Fatty acid) greater than 4 µg/mL and an IC50 ([8]; 1 h, read-out: IC50, Keto-mycolic acid) of 0.69 µg/mL (≈ 5.03 µM). For the same compound, the IC50 ([8]; 1 h, read-out: IC50, Methoxy-mycolic acid) was 0.63 µg/mL (≈ 4.59 µM), the IC50 ([8]; 1 h, read-out: IC50, α-Mycolic acid) was 1.85 µg/mL (≈ 13.5 µM) and the IC50 ([8]; read-out: IC50 values, all mycolic acid subclasses) was 0.63 to 1.85 µg/mL (≈ 4.59 to 13.5 µM). The “Activity against intracellular M. tuberculosis H37Rv” value [9] was “poor activity”, the “Log of Viable Counts/Lung” value (M. tuberculosis Kurono; 1.25 mg/kg) was 6.702 ± 0.237^c:NS, d:NS and the “Log of Viable Counts/Lung” value (M. tuberculosis Kurono; 2.5 mg/kg) was 5.751 ± 0.358^c:**, d:*. The “Log of Viable Counts/Lung” value (M. tuberculosis Kurono; 5 mg/kg) was 4.944 ± 0.760^c:**, d:**, the “Log of Viable Counts/Lung” value (M. tuberculosis Kurono; 10 mg/kg) was 4.434 ± 0.319^c:**, d:** and the “Log of Viable Counts/Lung” value (M. tuberculosis Kurono; 20 mg/kg) was 4.595 ± 0.452^c:**, d:**. For the same compound, the “Dose that could produce a CFU reduction of at least 95%” value (M. tuberculosis Kurono) was 5 mg/kg, the “Dose groups that showed a significant decrease in pulmonary viable bacterial count when compared with the vehicle control group” value (M. tuberculosis Kurono) was 2.5, 5, 10, and 20 mg/kg and the concentration at 0.083 h [10] was 2170 ± 435 ng/mL. The concentration at 0.25 h [10] was 3060 ± 779 ng/mL, the concentration at 0.5 h [10] was 2280 ± 390 ng/mL and the concentration at 1 h [10] was 1920 ± 478 ng/mL. For the same compound, the concentration at 2 h [10] was 740 ± 202 ng/mL, the concentration at 4 h [10] was 253 ± 57 ng/mL and the AUC(0-t) ([10]; 10 mg/kg) was 4550 ng·h/mL. For the same compound, the Cmax ([10]; 10 mg/kg) was 3060 ng/mL and the Tmax ([10]; 10 mg/kg) was 0.25 h.

`CC[C@@H](CO)NCCN[C@@H](CC)CO` [EB, ethambutol] showed an MIC [1] of 1.56 µg/mL (≈ 7.64 µM), an MIC [2] of 1.56 µg/mL (≈ 7.64 µM) and an MIC [3] of 3.13 µg/mL (≈ 15.3 µM). It also gave an MIC [4] of 50 µg/mL (≈ 245 µM), an MIC [5] of 3.13 µg/mL (≈ 15.3 µM) and an MIC [6] of 3.13 µg/mL (≈ 15.3 µM). The MIC90 [7] was 3.64 µg/mL (≈ 17.8 µM), the “Log of Viable Counts/Lung” value (M. tuberculosis Kurono; 20 mg/kg) was 6.923 ± 0.721^a:NS, b:NS and the “Log of Viable Counts/Lung” value (M. tuberculosis Kurono; 40 mg/kg) was 6.696 ± 0.382^a:NS, b:NS. For the same compound, the “Log of Viable Counts/Lung” value (M. tuberculosis Kurono; 80 mg/kg) was 6.429 ± 0.475^a:NS, b:NS, the “Log of Viable Counts/Lung” value (M. tuberculosis Kurono; 160 mg/kg) was 5.642 ± 0.120^a:**, b:** and the “Dose that could produce a CFU reduction of at least 95%” value (M. tuberculosis Kurono) was greater than 160 mg/kg. The “Dose groups that showed a significant decrease in pulmonary viable bacterial count when compared with the vehicle control group” value (M. tuberculosis Kurono) was 160 mg/kg, the AUC(0-t) [10] was 12200 ng·h/mL and the concentration at 0.083 h [10] was 55 ± 49 ng/mL. It also gave a concentration at 0.25 h [10] of 1300 ± 939 ng/mL, a concentration at 0.5 h [10] of 3170 ± 392 ng/mL and a concentration at 1 h [10] of 3510 ± 1130 ng/mL. For the same compound, the concentration at 2 h [10] was 2510 ± 1010 ng/mL, the concentration at 4 h [10] was 1020 ± 202 ng/mL and the AUC(0-t) ([10]; 100 mg/kg) was 12100 ng·h/mL. The Cmax ([10]; 100 mg/kg) was 3510 ng/mL, the Tmax ([10]; 100 mg/kg) was 1 h and the half-life ([10]; 100 mg/kg) was 2.8 h.
